Measured values reported in ChEMBL document CHEMBL4251732, “Discovery of Novel Indoleamine 2,3-Dioxygenase 1 (IDO1) and Histone Deacetylase (HDAC) Dual Inhibitors” (ACS Med Chem Lett, 2018).
The source made the active and inactive calls. No cut-off for these calls is given here.

What was measured:
[1] = system: Lewis lung carcinoma cell line; assay: Antitumor activity against mouse LLC cells implanted in immunocompetent C57BL/6 mouse assessed as tumor growth inhibition at 100 mg/kg, po bid administered via gavage for 14 consecutive days measured every 4 days relative to control; type: functional; conditions: 96 h, read-out: TGI
[2] = system: HCT-116; assay: Induction of apoptosis in human HCT116 cells at 10 uM after 48 hrs by Annexin V-FITC/propidium iodide staining based flow cytometry relative to control; type: functional
[3] = system: HCT-116; assay: Cell cycle arrest in human HCT116 cells assessed as accumulation at G2/M phase up to 48 hrs by propidium iodide staining based flow cytometry (reference value: 27.2%); type: functional
[4] = Ratio of LC50 for human HeLa cells to EC50 for IDO1 in IFN-gamma-stimulated human HeLa cells; type: toxicity
[5] = target: Histone deacetylase 1 (Homo sapiens, UniProt Q13547); assay: Inhibition of recombinant human full length HDAC1 using fluorogenic substrate 3 after 30 mins by fluorescence assay
[6] = system: HeLa; assay: Cytotoxicity against human HeLa cells assessed as inhibition of cell growth after 48 hrs by CCK-8 assay; type: cell-based
[7] = Cmax in Sprague-Dawley rat at 100 mg/kg, po administered as single dose via gavage by LC-MS/MS analysis; type: ADME, organism-based; design: dose 100 mg/kg, route oral; conditions: in vivo
[8] = Half life in immunocompetent C57BL/6 mouse implanted with mouse LLC cells at 100 mg/kg, po bid administered via gavage; type: ADME, organism-based; conditions: in vivo
[9] = system: HCT-116; assay: Induction of apoptosis in human HCT116 cells at 5 uM after 48 hrs by Annexin V-FITC/propidium iodide staining based flow cytometry relative to control; type: functional
[10] = system: HCT-116; assay: Induction of apoptosis in human HCT116 cells after 48 hrs by Annexin V-FITC/propidium iodide staining based flow cytometry; type: functional, cell-based
[11] = Half life in Sprague-Dawley rat at 2 mg/kg, iv administered as single dose by LC-MS/MS analysis; type: ADME, organism-based; conditions: in vivo
[12] = system: HCT-116; assay: Cell cycle arrest in human HCT116 cells assessed as accumulation at G2/M phase by propidium iodide staining based flow cytometry; type: functional; conditions: TDE = time-dependent effect
[13] = system: HCT-116; assay: Antiproliferative activity against human HCT116 cells after 48 hrs by CCK-8 assay; type: functional, cell-based; conditions: HCT-116, 48 h
[14] = Tmax in Sprague-Dawley rat at 100 mg/kg, po administered as single dose via gavage by LC-MS/MS analysis; type: ADME, organism-based; conditions: in vivo
[15] = AUC (0 to infinity) in Sprague-Dawley rat at 2 mg/kg, iv administered as single dose by LC-MS/MS analysis; type: ADME, organism-based; design: dose 2 mg/kg, time infinity, route intravenous; conditions: in vivo
[16] = Cmax in Sprague-Dawley rat at 2 mg/kg, iv administered as single dose by LC-MS/MS analysis; type: ADME, organism-based; design: dose 2 mg/kg, route intravenous; conditions: in vivo
[17] = Solubility of the compound in water; type: physicochemical
[18] = system: Mus musculus; assay: In vivo inhibition of IDO1 in wild type C57BL/6 mouse assessed as reduction in kynurenine levels in plasma at 100 mg/kg, po administered via gavage after 3 to 8 hrs by LC-MS/MS analysis; type: functional, organism-based
[19] = Stability of the compound in PBS buffer after 24 hrs; type: physicochemical
[20] = target: Histone deacetylase 3 (Homo sapiens, UniProt O15379); assay: Inhibition of HDAC3 (unknown origin) using substrate 3 after 30 mins by fluorescence assay
[21] = system: CT26; assay: Antiproliferative activity against mouse CT26 cells after 48 hrs by CCK-8 assay; type: functional, cell-based; conditions: CT26, 48 h
[22] = Half life in Sprague-Dawley rat at 100 mg/kg, po administered as single dose via gavage by LC-MS/MS analysis; type: ADME, organism-based; conditions: in vivo
[23] = Half life in mouse liver microsomes at 1 uM by LC-MS/MS analysis; type: ADME, microsome
[24] = system: HT-29; assay: Antiproliferative activity against human HT-29 cells after 48 hrs by CCK-8 assay; type: functional, cell-based; conditions: HT-29, 48 h
[25] = system: Lewis lung carcinoma cell line; assay: Antiproliferative activity against mouse LLC cells after 48 hrs by CCK-8 assay; type: functional, cell-based
[26] = system: A549; assay: Antiproliferative activity against human A549 cells after 48 hrs by CCK-8 assay; type: functional, cell-based; conditions: A549, 48 h
[27] = target: T1, Indoleamine 2,3-dioxygenase 1 (Homo sapiens, UniProt P14902); assay: Inhibition of IDO1 in IFN-gamma-stimulated human HeLa cells assessed as decrease in kynurenine levels after 48 hrs; type: cell-based
[28] = AUC in immunocompetent C57BL/6 mouse implanted with mouse LLC cells at 100 mg/kg, po bid administered via gavage; type: ADME, organism-based; conditions: in vivo
[29] = Apparent clearance in mouse liver microsomes; type: ADME, microsome
[30] = Oral bioavailability in Sprague-Dawley rat at 100 mg/kg administered as single dose via gavage by LC-MS/MS analysis; type: ADME, organism-based; conditions: in vivo
[31] = target: Histone deacetylase 2 (Homo sapiens, UniProt Q92769); assay: Inhibition of HDAC2 (unknown origin) using substrate 3 after 30 mins by fluorescence assay
[32] = AUC (0 to infinity) in Sprague-Dawley rat at 100 mg/kg, po administered as single dose via gavage by LC-MS/MS analysis; type: ADME, organism-based; design: dose 100 mg/kg, time infinity, route oral; conditions: in vivo
[33] = system: Mus musculus; assay: Toxicity in immunocompetent C57BL/6 mouse assessed as body weight loss at 100 mg/kg, po bid administered via gavage for 14 consecutive days measured 3 times per week; type: organism-based; conditions: in vivo
[34] = system: HCT-116; assay: Induction of apoptosis in human HCT116 cells at 20 uM after 48 hrs by Annexin V-FITC/propidium iodide staining based flow cytometry relative to control; type: functional
[35] = Tmax in Sprague-Dawley rat at 2 mg/kg, iv administered as single dose by LC-MS/MS analysis; type: ADME, organism-based; conditions: in vivo
[36] = target: T2, Protein deacetylase HDAC6 (Homo sapiens, UniProt Q9UBN7); assay: Inhibition of HDAC6 (unknown origin) using substrate 3 after 30 mins by fluorescence assay
T2 sequence (Q9UBN7 whole entry): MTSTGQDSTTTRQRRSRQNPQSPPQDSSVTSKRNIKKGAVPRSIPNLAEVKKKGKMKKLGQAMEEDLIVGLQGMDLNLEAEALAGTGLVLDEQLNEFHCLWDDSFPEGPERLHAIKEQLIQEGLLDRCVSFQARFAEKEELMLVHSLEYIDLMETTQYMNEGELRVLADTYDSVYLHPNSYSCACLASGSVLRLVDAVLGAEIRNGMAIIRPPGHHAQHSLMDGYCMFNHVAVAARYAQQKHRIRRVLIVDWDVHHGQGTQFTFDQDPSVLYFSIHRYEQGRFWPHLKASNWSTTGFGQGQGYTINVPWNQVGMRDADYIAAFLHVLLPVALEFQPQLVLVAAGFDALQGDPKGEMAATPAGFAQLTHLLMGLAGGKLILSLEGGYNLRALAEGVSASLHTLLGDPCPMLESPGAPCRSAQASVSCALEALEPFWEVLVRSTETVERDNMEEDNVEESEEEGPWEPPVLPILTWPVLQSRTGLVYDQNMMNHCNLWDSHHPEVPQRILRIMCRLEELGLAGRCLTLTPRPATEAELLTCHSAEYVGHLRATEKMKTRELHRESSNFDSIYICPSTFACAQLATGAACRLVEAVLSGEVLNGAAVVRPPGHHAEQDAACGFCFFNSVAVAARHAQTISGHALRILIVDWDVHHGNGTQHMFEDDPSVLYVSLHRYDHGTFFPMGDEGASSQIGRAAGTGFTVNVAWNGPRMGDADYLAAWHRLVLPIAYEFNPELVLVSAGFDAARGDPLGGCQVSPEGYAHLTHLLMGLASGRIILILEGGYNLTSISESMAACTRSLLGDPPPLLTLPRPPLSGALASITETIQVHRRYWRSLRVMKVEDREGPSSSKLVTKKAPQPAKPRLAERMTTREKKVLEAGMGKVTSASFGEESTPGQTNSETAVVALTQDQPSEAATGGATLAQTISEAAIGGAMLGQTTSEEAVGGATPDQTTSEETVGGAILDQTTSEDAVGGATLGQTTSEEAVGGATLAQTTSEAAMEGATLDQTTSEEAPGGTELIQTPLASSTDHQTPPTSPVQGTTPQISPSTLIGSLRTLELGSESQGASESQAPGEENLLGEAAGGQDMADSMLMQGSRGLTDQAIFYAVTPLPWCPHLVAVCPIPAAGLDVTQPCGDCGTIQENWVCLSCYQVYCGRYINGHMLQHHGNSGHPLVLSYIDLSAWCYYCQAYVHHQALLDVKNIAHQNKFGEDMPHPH

[37] = target: T1, Indoleamine 2,3-dioxygenase 1; assay: Inhibition of recombinant human GST-tagged IDO1 (1 to 404 residues) using D-Tryptophan as substrate

T1 sequence (P14902 whole entry): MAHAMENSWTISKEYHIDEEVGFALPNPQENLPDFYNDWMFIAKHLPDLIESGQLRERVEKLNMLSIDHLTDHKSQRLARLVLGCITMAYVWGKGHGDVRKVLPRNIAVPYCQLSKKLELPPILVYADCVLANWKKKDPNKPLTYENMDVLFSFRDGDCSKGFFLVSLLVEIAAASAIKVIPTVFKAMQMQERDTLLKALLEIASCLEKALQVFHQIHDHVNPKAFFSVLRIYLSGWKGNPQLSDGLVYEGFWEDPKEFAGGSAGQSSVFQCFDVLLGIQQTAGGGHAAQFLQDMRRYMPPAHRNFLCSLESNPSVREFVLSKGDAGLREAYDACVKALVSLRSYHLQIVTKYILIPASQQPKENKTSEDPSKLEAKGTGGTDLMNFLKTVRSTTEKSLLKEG
Chain of Histone deacetylase 2 (Q92769 whole entry): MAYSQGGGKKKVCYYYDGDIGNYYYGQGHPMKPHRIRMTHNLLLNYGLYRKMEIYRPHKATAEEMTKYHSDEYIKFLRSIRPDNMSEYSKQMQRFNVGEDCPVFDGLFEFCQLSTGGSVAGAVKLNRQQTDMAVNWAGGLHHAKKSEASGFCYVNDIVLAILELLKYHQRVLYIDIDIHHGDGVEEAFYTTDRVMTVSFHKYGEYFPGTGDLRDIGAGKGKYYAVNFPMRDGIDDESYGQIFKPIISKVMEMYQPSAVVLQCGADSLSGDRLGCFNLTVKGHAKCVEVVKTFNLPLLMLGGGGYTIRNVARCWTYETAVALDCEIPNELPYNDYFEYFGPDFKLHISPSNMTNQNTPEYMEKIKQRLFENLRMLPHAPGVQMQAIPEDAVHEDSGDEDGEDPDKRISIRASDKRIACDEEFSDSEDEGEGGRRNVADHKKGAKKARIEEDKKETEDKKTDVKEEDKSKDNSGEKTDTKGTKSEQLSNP
Chain of Histone deacetylase 3 (O15379 whole entry): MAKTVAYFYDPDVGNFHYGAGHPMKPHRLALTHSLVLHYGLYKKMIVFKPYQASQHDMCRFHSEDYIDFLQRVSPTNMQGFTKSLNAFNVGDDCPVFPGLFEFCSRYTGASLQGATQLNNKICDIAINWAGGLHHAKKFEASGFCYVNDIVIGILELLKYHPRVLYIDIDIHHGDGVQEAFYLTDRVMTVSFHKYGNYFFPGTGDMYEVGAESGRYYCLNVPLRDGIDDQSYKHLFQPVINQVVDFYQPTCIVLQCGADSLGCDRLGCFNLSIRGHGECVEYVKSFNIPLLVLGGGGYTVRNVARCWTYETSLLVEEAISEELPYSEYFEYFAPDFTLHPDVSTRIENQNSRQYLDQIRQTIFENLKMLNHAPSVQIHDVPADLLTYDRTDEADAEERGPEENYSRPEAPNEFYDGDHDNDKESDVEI
Chain of Histone deacetylase 1 (Q13547 whole entry): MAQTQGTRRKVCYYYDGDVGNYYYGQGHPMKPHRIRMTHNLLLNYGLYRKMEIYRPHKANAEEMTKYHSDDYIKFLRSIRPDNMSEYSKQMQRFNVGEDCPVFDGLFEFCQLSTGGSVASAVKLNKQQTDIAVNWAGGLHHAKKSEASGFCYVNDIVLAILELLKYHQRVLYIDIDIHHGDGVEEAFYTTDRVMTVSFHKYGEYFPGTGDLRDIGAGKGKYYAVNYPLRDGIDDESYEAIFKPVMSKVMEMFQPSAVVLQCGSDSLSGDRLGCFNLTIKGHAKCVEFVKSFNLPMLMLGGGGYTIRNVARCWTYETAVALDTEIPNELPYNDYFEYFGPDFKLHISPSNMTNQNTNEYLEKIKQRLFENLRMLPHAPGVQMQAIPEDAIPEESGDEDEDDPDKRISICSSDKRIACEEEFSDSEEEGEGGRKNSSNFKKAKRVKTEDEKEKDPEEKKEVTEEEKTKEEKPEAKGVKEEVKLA

Q: Which results are given for `Nc1ccccc1NC(=O)c1ccc(C(=O)NCCNc2nonc2/C(=N/O)Nc2ccc(F)c(Br)c2)cc1`?
A: inhibition in vivo at 100 mg/kg [1]: 56%; Activity [2]: 29.9%; Activity [3]: 47.4%; selectivity ratio [4]: 60.4; IC50 [5]: 0.0665 µM; LC50 [6]: 24.77 µM; Cmax [7]: 5760 ng/mL; half-life [8]: 3.4 h; Activity [9]: 18.8%; Activity [10]: Dose-dependent effect; half-life [11]: 1.4 h; Activity [12]: Tde; IC50 [13]: 5.12 µM; Tmax [14]: 2 h; AUC(0-inf) [15]: 3650 ng·h/mL; Cmax [16]: 12000 ng/mL; solubility [17]: < 10 µg/mL; inhibition [18]: Active; Stability [19]: Stable; IC50 [20]: 0.045 µM; IC50 [21]: 59.8 µM; half-life [22]: 3.4 h; half-life at 1 µM [23]: 0.806 h; IC50 [24]: 11.7 µM; IC50 [25]: 17.6 µM; IC50 [26]: 16.7 µM; EC50 [27]: 0.41 µM; AUC [28]: 60 µM·h; CL(app) [29]: 28.7 µL/min/mg; bioavailability [30]: 18%; IC50 [31]: 0.179 µM; AUC(0-inf) [32]: 33500 ng·h/mL; Activity [33]: Non-Toxic; Activity [34]: 48.9%; Tmax [35]: 4.98 min; IC50 [36]: 0.07 µM; IC50 [37]: 0.069 µM
